US20060058325A1, “Therapeutic quniazoline derivatives” (AstraZeneca AB, priority 2002, published 2006)

How the values were obtained:
[1] = target: T1, Aurora-B (Homo sapiens, UniProt Q96GD4); assay: In vitro Aurora-B kinase inhibition test; format: biochemical; conditions: recombinant Aurora-B, 33P-ATP peptide substrate, 60 minutes room temperature; read-out: concentration giving 50% inhibition of enzyme activity
T1 construct: 6-histidine; made in house; host or cells: Spodoptera frugiperda Sf21 insect cells (baculovirus)
Source text: (b) In Vitro Aurora-B Kinase Inhibition Test
This assay determines the ability of a test compound to inhibit serine-threonine kinase activity. DNA encoding Aurora-B may be obtained by total gene synthesis or by cloning. This DNA may then be expressed in a suitable expression system to obtain polypeptide with serine-threonine kinase activity. In the case of Aurora-B, the coding sequence was isolated from cDNA by polymerase chain reaction (PCR) and cloned into the pFastBac system in a manner similar to that described above for Aurora-A (i.e. to direct expression of a 6-histidine tagged Aurora-B protein).
For the large scale expression of Aurora-B kinase activity, Sf21 insect cells were grown at 28° C. in TC100 medium supplemented with 10% foetal calf serum (Viralex) and 0.2% F68 Pluronic (Sigma) on a Wheaton roller rig at 3 r.p.m. When the cell density reached 1.2×10^6 cells ml^−1 they were infected with plaque-pure Aurora-B recombinant virus at a multiplicity of infection of 1 and harvested 48 hours later. All subsequent purification steps were performed at 4° C. […]

[2] = system: SW620 cells; assay: In vitro cell proliferation assay (BrdU incorporation); format: cell-based; conditions: Homo sapiens, SW-620, 48 hours with compound, 2 hour BrdU labelling, read-out: concentration active in test (50% inhibition of BrdU incorporation)
Source text: (c) In Vitro Cell Proliferation Assay
This and other assays can be used to determine the ability of a test compound to inhibit the growth of adherent mammalian cell lines, for example the human tumour cell line SW620 (ATCC CCL-227). This assay determines the ability of at test compound to inhibit the incorporation of the thymidine analogue, 5′-bromo-2′-deoxy-uridine (BrdlD into cellular DNA. SW620 or other adherent cells were typically seeded at 1×10^5 cells per well in L-15 media (GIBCO) plus 5% foetal calf serum, 1% L-glutamine (100 μl /well) in 96 well tissue culture treated 96 well plates (Costar) and allowed to adhere overnight. The following day the cells were dosed with compound (diluted from 10 mM stock in DMSO using L-15 (with 5% FCS, 1% L-glutamine). Untreated control wells and wells containing a compound known to give 100% inhibition of BrdU incorporation were included on each plate. After 48 hours in the presence/absence of test compound the ability of the cells to incorporate BrdU over a 2 hour labelling period was determined using a Boelringer (Roche) Cell Proliferation BrdU ELISA kit (cat. No. 1 647 229) according to manufacturers directions. […] The optical density of the wells was then determined at 690 nm wavelength using a Titertek Multiscan plate reader. […]

[3] = system: SW620 cells; assay: In vitro cell cycle analysis assay (FACS DNA content); format: cell-based, human; conditions: 24 hours with compound
Protocol: (d) In Vitro Cell Cycle Analysis Assay
This assay determines the ability of a test compound to arrest cells in specific phases of the cell cycle. Many different mammalian cell lines could be used in this assay and SW620 cells are included here as an example. SW620 cells were seeded at 7×10^5 cells per T25 flask (Costar) in 5 ml L-15 (5% FCS, 1% L-glutamine). Flasks were then incubated overnight in a humidified 37° C. incubator with 5% CO2. The following day, 5 μl of L-15 (5% FCS, 1% L-glutamine) carrying the appropriate concentration of test compound solubilised in DMSO was added to the flask. A no compound control treatments was also included (0.5% DMSO). The cells were then incubated for a defined time (24 hours) with compound. […]
Each sample was then syringed 10 times using 21-guage needle. The samples were then transferred to LPS tubes and DNA content per cell analysed by Fluorescence activated cell sorting (FACS) using a FACScan flow cytometer (Becton Dickinson). Typically 30,000 events were counted and recorded using CellQuest v1.1 software (Verity Software). Cell cycle distribution of the population was calculated using Modfit software (Verity Software) and expressed as percentage of cells with 2N (G0/G1), 2N-4N (S phase) and with 4N (G2/M) DNA content. […]

[4] = target: T2, Aurora-A (Homo sapiens, UniProt O14965); assay: In vitro Aurora-A kinase inhibition test; format: biochemical
T2 construct: made in house; host or cells: Spodoptera frugiperda Sf21 insect cells (baculovirus)
T2 sequence (O14965 1-403): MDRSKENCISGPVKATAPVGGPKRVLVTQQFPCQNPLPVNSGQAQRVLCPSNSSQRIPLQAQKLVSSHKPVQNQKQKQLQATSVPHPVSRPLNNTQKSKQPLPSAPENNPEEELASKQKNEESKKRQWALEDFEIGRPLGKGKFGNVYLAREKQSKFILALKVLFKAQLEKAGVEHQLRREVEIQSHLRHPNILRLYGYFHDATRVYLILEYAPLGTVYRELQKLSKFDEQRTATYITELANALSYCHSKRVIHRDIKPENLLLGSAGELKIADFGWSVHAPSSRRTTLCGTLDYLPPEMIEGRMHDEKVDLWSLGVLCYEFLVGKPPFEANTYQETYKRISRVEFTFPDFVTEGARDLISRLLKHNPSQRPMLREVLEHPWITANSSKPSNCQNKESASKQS

T1 sequence (Q96GD4 whole entry): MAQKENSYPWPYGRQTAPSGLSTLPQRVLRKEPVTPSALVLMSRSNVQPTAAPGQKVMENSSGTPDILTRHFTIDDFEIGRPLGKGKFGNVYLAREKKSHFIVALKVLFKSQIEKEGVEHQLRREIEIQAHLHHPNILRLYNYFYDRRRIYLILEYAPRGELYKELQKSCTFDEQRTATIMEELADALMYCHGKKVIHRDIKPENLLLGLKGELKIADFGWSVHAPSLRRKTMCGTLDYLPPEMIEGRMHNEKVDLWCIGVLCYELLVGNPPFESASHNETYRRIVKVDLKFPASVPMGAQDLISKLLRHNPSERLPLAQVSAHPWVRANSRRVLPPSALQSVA

## CCN(CCCOc1cc2ncnc(Nc3cnc(NC(=O)c4ccc(F)c(Cl)c4)nc3)c2cc1OC)CCOP(=O)(O)O [Compound 24, 2-[(3-{[4-({2-[(3-chloro-4-fluorobenzoyl)amino]pyrimidin-5-yl}amino)-6-methoxyquinazolin-7-yl]oxy}propyl)(ethyl)amino]ethyl dihydrogen phosphate]
[1]
  IC50: 0.0123 µM
[2]
  IC50: 0.3 µM
[3]
  concentration active in cell cycle analysis test: 1.5 µM
[4]
  IC50: 0.0003 µM
